In paper PMC5551175, “Trypanosoma brucei Inhibition by Essential Oils from Medicinal and Aromatic Plants Traditionally Used in Cameroon (Azadirachta indica, Aframomum melegueta, Aframomum daniellii, Clausena anisata, Dichrostachys cinerea and Echinops giganteus)” (International Journal of Environmental Research and Public …, 2017):
Read-outs that look alike come from different tables or passages of the source.

Legend:
[1] = system: T. brucei TC221 bloodstream forms; experiment: T. brucei growth inhibition assay (resazurin); type: cell-based; conditions: Trypanosoma brucei, 72 h, 48 h + 24 h with resazurine
Description: (§1) The cell culture conditions and the growth inhibition assay on T. brucei and Balb/3T3 cells were performed as described before. T. brucei TC221 bloodstream forms and mouse embryonic fibroblast Balb/3T3 cells (ATCC no CCL-163) were cultivated in vented plastic flasks at 37 °C with 5% CO2. For T. brucei, the growth medium was HMI-9 [45] supplemented with 10% (v/v) fetal bovine serum (Gibco, Waltham, MA, USA), whereas the Balb/3T3 cells were grown in Dulbecco’s Modified Eagle’s Medium (Sigma-Aldrich) supplemented with 10% (v/v) heat-inactivated fetal bovine serum, glutamine (0.584 g/L), and 10 mL/L 100× penicillin-streptomycin (Gibco). The essential oils or pure compounds identified from these oils were dissolved in dimethyl sulfoxide (DMSO) and serially diluted with growth medium in white 96-well microtiter plates. 20,000 bloodstream forms of T. brucei or Balb/3T3 cells were added to each well in a final volume of 200 μL. In the case of mammalian cells, we also tested 2000 cells/well with similar results. […] Cell viability was verified by a drug-free control for each compound. The plates were incubated for 48 h in the CO2 incubator; then 20 μL of 0.5 mM resazurine (Sigma Aldrich) was added to each well, and the plates were incubated for an additional 24 h before the fluorescence was measured with an Infinite M200 microplate reader (Tecan group, Ltd., Männedorf, Switzerland) equipped with 540 and 590 nm excitation and emission filters. The half maximal inhibitory concentration (IC50) values were calculated on a log inhibitor versus the response curves by non-linear regression using the GraphPad prism 5.04 software (GraphPad Software, Inc., La Jolla, CA, USA).

Balb/3T3 cells = experiment: Mammalian cell growth inhibition assay (resazurin); type: cell-based, mouse; conditions: for CC50: BALB/3T3, 72 h, mouse embryonic fibroblast cells, 48 h + 24 h with resazurine, read-out: IC50 Balb/3T3; for Selectivity Index (SI): Balb/3T3 versus T. b. brucei TC221
Description: as §1

[2] = read-out: IC50 T. b. brucei (TC221)
[3] = µM value in parentheses, read-out: IC50 T. b. brucei (TC221), value in brackets (converted)

Compound | IC50 [1, 2] | IC50 [1, 3] | CC50 (Balb/3T3 cells) | Selectivity Index (SI) (Balb/3T3 cells)
CC12CCC(CC1)C(C)(C)O2 [1,8-Cineole] | > 100 µg/mL |  |  | 
CC1=CCC(O)(C(C)C)CC1 (stereo not shown) [Terpinen-4-ol] | > 100 µg/mL |  |  | 
C=C1CCC2(C(C)C)CC12 (stereo not shown) [Sabinene] | 5.96 ± 1.3 µg/mL | 43.8 µM | > 100 µg/mL | >16.7
Cc1ccc(C(=O)Nc2ccc(S(=O)(=O)O)c3cc(S(=O)(=O)O)cc(S(=O)(=O)O)c23)cc1NC(=O)c1cccc(NC(=O)Nc2cccc(C(=O)Nc3cc(C(=O)Nc4ccc(S(=O)(=O)O)c5cc(S(=O)(=O)O)cc(S(=O)(=O)O)c45)ccc3C)c2)c1 [Suramin, reference compound] | 0.0286 ± 0.0008 µg/mL | 0.022 µM |  | 

Continued, in another order:

IC50 [1, 2] | IC50 [1, 3] | Compound | CC50 (Balb/3T3 cells) | Selectivity Index (SI) (Balb/3T3 cells)
11.4 ± 2.6 µg/mL | 83.7 µM | C=C1CCC2CC1C2(C)C (stereo not drawn) [β-Pinene] | > 100 µg/mL | >8.77
8.25 ± 1.3 µg/mL | 40.4 µM | C=C1CC/C=C(\C)CC[C@@H]2[C@@H]1CC2(C)C [(E)-Caryophyllene] | > 100 µg/mL | >12.1
